Target: Estrogen receptor (Rattus norvegicus) (UniProt P06211+Q62986)
Test: Relative binding affinity for rat uterine estrogen receptor at 25 degree C
Type: protein assay

RBA: 60
Structure (SMILES): C[C@]12CC[C@@H]3c4ccc(O)cc4CC[C@H]3[C@@H]1C[C@@H](F)[C@@H]2O
